Data: patent publication US20240327463A1, “ANTIBACTERIAL PRODUCTS” (priority 2017, published 2024)
In brackets after ≈: the same amount, converted by molar mass. Bridge positions count the residues as written; N and C are the ends. Square brackets hold non-standard residues; d marks the D form. Peptide text beside a SMILES is read from it. ξ: configuration not given here. dNMeF = CN[C@H](Cc1ccccc1)C(=O)O; Ile(3ξ) = CCC(C)[C@H](N)C(=O)O

How the values were obtained:
[1] = tested on: MRSA ATCC 33591; conditions: for MIC (MRSA): ATCC 33591
Protocol: (§1) For MIC testing all peptides were dissolved in DMSO (according to the method of L. L. Ling, et al., Nature 2015, 517, 455-459). Bacteria were grown on Mueller Hinton broth (oxoid). All incubations were at 37° C. Dilutions were carried out using Mueller Hinton. 100 μl of autoclaved Mueller Hinton broth was added to wells 2-12 on a 96-well plate. 200 μl of the peptide was added to well one at a concentration of 512 μg/ml. 100 μl of peptide in well one was taken up and pipetted into well two. The mixture was then mixed via pipetting before 100 μl was taken up and pipetted into well three. This process was repeated up to well 11. […] This was repeated three times. The 96-well plates were then incubated for 24 hours. The MIC was determined to be the lowest concentration at which there was no growth visible.

[2] = tested on: Bacillus Cereus ATCC 11788; format: cell-based
Protocol: (§2) Bacteria were grown on Mueller Hinton broth (oxoid). All incubations were at 37° C. Dilutions were carried out using Mueller Hinton. […] This process was repeated up to well 11. […] This was repeated three times. […] Results are tabulated in the Examples.

[3] = tested on: Bacillus Subtilis ATCC 6633; format: cell-based
Protocol: as §2

[4] = tested on: SA4299; format: cell-based; conditions: Table 11
Protocol: as §2

[5] = tested on: SE12228; format: cell-based
Protocol: as §2

[6] = tested on: Staphylococcus saprophyticus ATCC 15305; format: cell-based; conditions: ATCC 15305
Protocol: as §2

[7] = tested on: Staphylococcus saprophyticus ATCC 49453; format: cell-based; conditions: ATCC 49453
Protocol: as §2

[8] = tested on: Staphylococcus saprophyticus ATCC 49907; format: cell-based; conditions: ATCC 49907
Protocol: as §2

[9] = tested on: Staphylococcus saprophyticus ATCC BAA 750; format: cell-based; conditions: ATCC BAA 750
Protocol: as §2

[10] = tested on: MRSA ATCC 700699; experiment: microbe, parasite or virus in culture
Protocol: as §1

[11] = tested on: MRSA DM21455 (eye); experiment: microbe, parasite or virus in culture
Protocol: as §1

[12] = tested on: MRSA DR 42412 (sputum); experiment: microbe, parasite or virus in culture; conditions: for MIC: DR 42412 (sputum)
Protocol: as §1

[13] = tested on: Staphylococcus aureus ATCC 29213; experiment: microbe, parasite or virus in culture
Protocol: as §1

[14] = tested on: VRE ATCC 29212; experiment: microbe, parasite or virus in culture
Protocol: as §1

[15] = tested on: VRE ATCC 700802; experiment: microbe, parasite or virus in culture
Protocol: as §1

[16] = tested on: MRSA 1003; format: cell-based, Staphylococcus aureus
Protocol: as §2

[17] = tested on: VRE 1001; format: cell-based, Enterococcus faecalis
Protocol: as §2

[18] = tested on: VRE 1002; format: cell-based, Enterococcus faecalis
Protocol: as §2

[19] = tested on: VRE 1004; format: cell-based, Enterococcus faecalis
Protocol: as §2

[20] = tested on: VRE 1008; format: cell-based, Enterococcus faecalis
Protocol: as §2

[21] = tested on: M. smegmatis ATCC 607; experiment: microbe, parasite or virus in culture; conditions: M. smegmatis ATCC 607; Table 4B
Protocol: as §1

[22] = tested on: S. aureus ATCC 29213; experiment: Mice-eye model of S. aureus keratitis; format: in vivo; conditions: for mean corneal thickness: 0.3% topical, baseline 93.8±2.9 μm
Excerpt: The in vivo efficacy of Compound 26 in the mice-eye model of S. aureus keratitis was examined. S. aureus is one of the major etiological agents for bacterial keratitis and the toxic secretions produced by this microorganism have been implicated in corneal melt, leading to significant morbidity and vision loss. […] A total of 8 doses were applied and the progression of the infection was monitored by slit lamp examination, anterior segment optical coherent tomography (AS-OCT) and microbiological enumeration of the bacterial bioburden. Mice cornea treated with PBS had severe clinical presentation indicated by chemosis, significant presence of hypopyon like materials and corneal infiltrates (FIG. 4).

[23] = Staphylococcus aureus ATCC 29213, Table 4B

Row | Structure (SMILES) | MIC (MRSA) [1] [µg/mL] | MIC [2] [µg/mL] | MIC [3] [µg/mL] | MIC [5] [µg/mL] | MIC [6] [µg/mL] | MIC [7] [µg/mL] | MIC [8] [µg/mL] | MIC [9] [µg/mL] | MIC ([10]; ATCC 700699) [µg/mL] | MIC ([11]; DM21455 (eye)) [µg/mL] | MIC [12] [µg/mL] | MIC ([13]; ATCC 29213) [µg/mL] | MIC ([14]; ATCC 29212) [µg/mL] | MIC ([15]; ATCC 700802) [µg/mL] | MIC [16] [µg/mL] | MIC [17] [µg/mL] | MIC [18] [µg/mL] | MIC [19] [µg/mL] | MIC [20] [µg/mL] | further results
1 | CCC(C)[C@@H]1NC(=O)[C@H](CCCNC(=N)N)NC(=O)[C@H](NC(=O)[C@H](CO)NC(=O)[C@@H](NC(=O)[C@H](NC(=O)[C@@H](CCC(N)=O)NC(=O)[C@H](CO)NC(=O)[C@@H](NC(=O)[C@@H](Cc2ccccc2)NC)[C@@H](C)CC)[C@H](C)CC)[C@@H](C)CC)[C@H](C)OC(=O)[C@H]([C@@H](C)CC)NC1=O (some centres unmarked) [Compound 34, Arg9-Ile10-teixobactin] (H-[dNMeF]IS[dQ][dI]IS[dT]R[Ile(3ξ)]I; ester 8-C) | 0.25 (≈ 0.194 µM) | 0.5 (≈ 0.389 µM) | 0.125 (≈ 0.0972 µM) | <0.0625 | <0.0625 | <0.0625 | <0.0625 | <0.0625 | 1 (≈ 0.777 µM) | 0.5 (≈ 0.389 µM) | 0.125 (≈ 0.0972 µM) | 1 (≈ 0.777 µM) | 1 (≈ 0.777 µM) | 1 (≈ 0.777 µM) | 0.5 (≈ 0.389 µM) | 1 (≈ 0.777 µM) | 1 (≈ 0.777 µM) | 1 (≈ 0.777 µM) | 1 (≈ 0.777 µM) | MIC [4]: 1 µg/mL (≈ 0.777 µM)
2 | CC[C@H](C)[C@H](NC(=O)[C@@H](Cc1ccccc1)NC)C(=O)N[C@@H](CO)C(=O)N[C@H](CCC(N)=O)C(=O)N[C@@H](C(=O)N[C@H](C(=O)N[C@@H](CO)C(=O)N[C@H]1C(=O)N[C@@H](C)C(=O)N[C@@H](CCCNC(=N)N)C(=O)N[C@@H]([C@@H](C)CC)C(=O)O[C@H]1C)[C@@H](C)CC)[C@@H](C)CC [Compound 6, Arg10-teixobactin, reference compound] | – | – | – | – | – | – | – | – | – | – | – | – | – | – | – | – | – | – | – | MIC (MRSA*) ([1]; MRSA ATCC 33591, Table 4A): 2 µg/mL (≈ 1.61 µM); MIC [21]: 1 to 2 µg/mL; MIC ([10]; MRSA 1: MRSA ATCC 700699, Mueller Hinton Broth, Table 4B): 1 µg/mL (≈ 0.804 µM); MBC ([10]; MRSA 1: MRSA ATCC 700699, Table 4B): 2 µg/mL (≈ 1.61 µM); MIC ([11]; MRSA 3: MRSA DM21455 (eye), clinical isolate, Table 4B): 0.5 µg/mL (≈ 0.402 µM); MBC ([11]; MRSA 3: MRSA DM21455 (eye), Table 4B): 1 µg/mL (≈ 0.804 µM); MBC ([12]; MRSA 2: MRSA DR 42412 (sputum), Table 4B): 0.5 µg/mL (≈ 0.402 µM); MBC [13, 23]: 1 µg/mL (≈ 0.804 µM); MIC [13, 23]: 0.25 µg/mL (≈ 0.201 µM); MIC ([14]; VRE 2: VRE ATCC 29212, Table 4B): 2 µg/mL (≈ 1.61 µM); MIC ([15]; VRE 1: VRE ATCC 700802, Table 4B): 2 µg/mL (≈ 1.61 µM)
3 | COc1c(N2C[C@@H]3CCCN[C@@H]3C2)c(F)cc2c(=O)c(C(=O)O)cn(C3CC3)c12 [moxifloxacin, reference compound] | – | – | – | – | – | – | – | – | – | – | – | – | – | – | – | – | – | – | – | mean corneal thickness ([22]; 24 h post treatment): 124.2±9.4 μm; mean corneal thickness ([22]; 48 h post treatment): 140.3±10.3 μm; mean log10 CFU/tissue ([22]; corneal tissues harvested after 8 dosages, ± standard error of the mean): 3.7±0.24 log10 CFU/tissue
4 | CC[C@@H](C)[C@@H](NC(=O)[C@@H](CCC(N)=O)NC(=O)[C@H](CCCNC(=N)N)NC(=O)[C@@H](NC(=O)[C@@H](Cc1ccccc1)NC)[C@@H](C)CC)C(=O)N[C@H](C(=O)N[C@@H](CO)C(=O)N[C@H]1C(=O)N[C@@H](C)C(=O)N[C@@H](CC(C)C)C(=O)N[C@@H]([C@@H](C)CC)C(=O)O[C@H]1C)[C@@H](C)CC [Compound 25, Arg3-Leu10-teixobactin] (H-[dNMeF]IR[dQ][dI]IS[dT]ALI; ester 8-C) | 0.125 (≈ 0.0984 µM) | <0.0625 | <0.0625 | <0.0625 | <0.0625 | <0.0625 | <0.0625 | <0.0625 | 0.5 (≈ 0.394 µM) | 0.03125 (≈ 0.0246 µM) | <0.0625 | 0.25 (≈ 0.197 µM) | 0.5 (≈ 0.394 µM) | 0.5 (≈ 0.394 µM) | <0.0625 | 0.25 (≈ 0.197 µM) | 0.5 (≈ 0.394 µM) | <0.0625 | 0.125 (≈ 0.0984 µM) | –
